Results from patent US20170050957A1, “4-AMINO-6-(HETEROCYCLIC)PICOLINATES AND 6-AMINO-2-(HETEROCYCLIC)PYRIMIDINE-4-CARBOXYLATES AND THEIR USE AS HERBICIDES” (Dow AgroSciences LLC, priority 2013, published 2017).
Read-outs that look alike come from different tables or passages of the source.

Assays:
[1] = tested on: Key Grass and Sedge Weeds as well as Grass Crops; assay: Post-emergent Test II herbicidal activity (Table 16); format: in vivo; settings: post-emergence, 336 h, 14 d; for pest or weed control at 35 g/ha: 35 g ai/ha; for pest or weed control at 70 g/ha: 70 g ai/ha; for pest or weed control at 140 g/ha: 140 g ai/ha
Procedure, shortened: (§1)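 Visual injury rating (0 = none, 100% = complete kill) made 14 d after treatment, relative to untreated plants. Compounds in an acetone/DMSO/aqueous crop-oil/surfactant spray, at top rate and serial 1/2×-1/16× rates, were applied at 187 L/ha overhead to first-second true leaf plants raised 7-21 d in greenhouse.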

[2] = tested on: Key Broadleaf Weed and Crop Species; assay: Post-emergent Test II herbicidal activity (Table 15); format: in vivo; settings: post-emergence, 336 h, 14 d; for pest or weed control at 35 g/ha: 35 g ai/ha; for pest or weed control at 70 g/ha: 70 g ai/ha; for pest or weed control at 140 g/ha: 140 g ai/ha
Procedure, shortened: as §1

[3] = Cyperus esculentus, yellow nutsedge (Cyperus esculentus), read-out: Visual Growth Reduction (%) 14 Days After Application, CYPES
[4] = Echinochloa crus-galli, barnyardgrass (Echinochloa crus-galli), read-out: Visual Growth Reduction (%) 14 Days After Application, ECHCG
[5] = Oryza sativa, rice (Oryza sativa), read-out: Visual Growth Reduction (%) 14 Days After Application, ORYSA
[6] = Setaria faberi, giant foxtail (Setaria faberi), read-out: Visual Growth Reduction (%) 14 Days After Application, SETFA
[7] = Triticum aestivum, wheat, spring (Triticum aestivum), read-out: Visual Growth Reduction (%) 14 Days After Application, TRZAS
[8] = Zea mays, maize, corn (Zea mays), read-out: Visual Growth Reduction (%) 14 Days After Application, ZEAMX
[9] = Abutilon theophrasti, velvetleaf (Abutilon theophrasti), read-out: Visual Growth Reduction (%) 14 Days After Application, ABUTH
[10] = Amaranthus retroflexus, redroot pigweed (Amaranthus retroflexus), read-out: Visual Growth Reduction (%) 14 Days After Application, AMARE
[11] = Brassica napus, oilseed rape, canola (Brassica napus), read-out: Visual Growth Reduction (%) 14 Days After Application, BRSNN
[12] = Chenopodium album, lambsquarters (Chenopodium album), read-out: Visual Growth Reduction (%) 14 Days After Application, CHEAL
[13] = Euphorbia heterophylla, wild poinsettia (Euphorbia heterophylla), read-out: Visual Growth Reduction (%) 14 Days After Application, EPHHL
[14] = Helianthus annuus, sunflower (Helianthus annuus), read-out: Visual Growth Reduction (%) 14 Days After Application, HELAN

| Compound | pest or weed control at 35 g/ha [1, 3] [%] | pest or weed control at 70 g/ha [1, 3] [%] | pest or weed control at 140 g/ha [1, 3] [%] | pest or weed control at 35 g/ha [1, 4] [%] | pest or weed control at 70 g/ha [1, 4] [%] | pest or weed control at 140 g/ha [1, 4] [%] | pest or weed control at 35 g/ha [1, 5] [%] | pest or weed control at 70 g/ha [1, 5] [%] | pest or weed control at 140 g/ha [1, 5] [%] | pest or weed control at 35 g/ha [1, 6] [%] | pest or weed control at 70 g/ha [1, 6] [%] | pest or weed control at 140 g/ha [1, 6] [%] | pest or weed control at 35 g/ha [1, 7] [%] | pest or weed control at 70 g/ha [1, 7] [%] | pest or weed control at 140 g/ha [1, 7] [%] | pest or weed control at 35 g/ha [1, 8] [%] | pest or weed control at 70 g/ha [1, 8] [%] | pest or weed control at 140 g/ha [1, 8] [%] | pest or weed control at 35 g/ha [2, 9] [%] | pest or weed control at 70 g/ha [2, 9] [%] | other results |
| --- | --- | --- | --- | --- | --- | --- | --- | --- | --- | --- | --- | --- | --- | --- | --- | --- | --- | --- | --- | --- | --- |
| COC(=O)c1nc(-c2ccc3cc[nH]c3c2F)cc(N)c1Cl [Compound 1.23, Methyl 4-amino-3-chloro-6-(7-fluoro-1H-indol-6-yl)picolinate] | 0 to 29 | 0 to 29 | 0 to 29 | 0 to 29 | 0 to 29 | 60 to 74 | 0 to 29 | 0 to 29 | 0 to 29 | 0 to 29 | 0 to 29 | 60 to 74 | 0 to 29 | 0 to 29 | 30 to 44 | 0 to 29 | 0 to 29 | 0 to 29 | 95 to 100 | 95 to 100 | pest or weed control at 140 g/ha [2, 9]: 95 to 100%; pest or weed control at 35 g/ha [2, 10]: 95 to 100%; pest or weed control at 70 g/ha [2, 10]: 95 to 100%; pest or weed control at 140 g/ha [2, 10]: 95 to 100%; pest or weed control at 35 g/ha [2, 11]: 60 to 74%; pest or weed control at 70 g/ha [2, 11]: 75 to 84%; pest or weed control at 140 g/ha [2, 11]: 85 to 94%; pest or weed control at 35 g/ha [2, 12]: 95 to 100%; pest or weed control at 70 g/ha [2, 12]: 95 to 100%; pest or weed control at 140 g/ha [2, 12]: 95 to 100%; pest or weed control at 35 g/ha [2, 13]: 95 to 100%; pest or weed control at 70 g/ha [2, 13]: 95 to 100%; pest or weed control at 140 g/ha [2, 13]: 95 to 100%; pest or weed control at 35 g/ha [2, 14]: 60 to 74%; pest or weed control at 70 g/ha [2, 14]: 75 to 84%; pest or weed control at 140 g/ha [2, 14]: 85 to 94% |
| Nc1cc(-c2ccc3cc[nH]c3c2F)nc(C(=O)O)c1Cl [Compound 1.24] | 0 to 29 | 0 to 29 | 0 to 29 | 0 to 29 | 0 to 29 | 0 to 29 | 0 to 29 | 0 to 29 | 0 to 29 | 0 to 29 | 45 to 59 | 60 to 74 | 0 to 29 | 30 to 44 | 45 to 59 | 0 to 29 | 0 to 29 | 0 to 29 | 85 to 94 | 95 to 100 | pest or weed control at 140 g/ha [2, 9]: 95 to 100%; pest or weed control at 35 g/ha [2, 10]: 95 to 100%; pest or weed control at 70 g/ha [2, 10]: 95 to 100%; pest or weed control at 140 g/ha [2, 10]: 95 to 100%; pest or weed control at 35 g/ha [2, 11]: 85 to 94%; pest or weed control at 70 g/ha [2, 11]: 45 to 59%; pest or weed control at 140 g/ha [2, 11]: 95 to 100%; pest or weed control at 35 g/ha [2, 12]: 85 to 94%; pest or weed control at 70 g/ha [2, 12]: 95 to 100%; pest or weed control at 140 g/ha [2, 12]: 95 to 100%; pest or weed control at 35 g/ha [2, 13]: 95 to 100%; pest or weed control at 70 g/ha [2, 13]: 95 to 100%; pest or weed control at 140 g/ha [2, 13]: 95 to 100%; pest or weed control at 35 g/ha [2, 14]: 60 to 74%; pest or weed control at 70 g/ha [2, 14]: 75 to 84%; pest or weed control at 140 g/ha [2, 14]: 85 to 94% |
| COC(=O)c1nc(-c2cc3[nH]ccc3cc2F)cc(N)c1Cl [Compound 1.25] | 0 to 29 | 0 to 29 | 0 to 29 | 0 to 29 | 0 to 29 | 0 to 29 | 0 to 29 | 0 to 29 | 0 to 29 | 0 to 29 | 0 to 29 | 0 to 29 | 0 to 29 | 0 to 29 | 0 to 29 | 0 to 29 | 0 to 29 | 0 to 29 | 0 to 29 | 0 to 29 | pest or weed control at 140 g/ha [2, 9]: 30 to 44%; pest or weed control at 35 g/ha [2, 10]: 75 to 84%; pest or weed control at 70 g/ha [2, 10]: 85 to 94%; pest or weed control at 140 g/ha [2, 10]: 95 to 100%; pest or weed control at 35 g/ha [2, 11]: 60 to 74%; pest or weed control at 70 g/ha [2, 11]: 75 to 84%; pest or weed control at 140 g/ha [2, 11]: 85 to 94%; pest or weed control at 35 g/ha [2, 12]: 0 to 29%; pest or weed control at 70 g/ha [2, 12]: 60 to 74%; pest or weed control at 140 g/ha [2, 12]: 60 to 74%; pest or weed control at 35 g/ha [2, 13]: 0 to 29%; pest or weed control at 70 g/ha [2, 13]: 0 to 29%; pest or weed control at 140 g/ha [2, 13]: 30 to 44%; pest or weed control at 35 g/ha [2, 14]: 0 to 29%; pest or weed control at 70 g/ha [2, 14]: 0 to 29%; pest or weed control at 140 g/ha [2, 14]: 0 to 29% |
